# In patent publication US4107297A, “Antibiotic compound” (The Kitasato Institute, priority 1976, dated 1978):
# Values joined by “and” are separate entries in the source; they are usually repeats but may differ in a detail not shown here. Equal values may be shown once. Where a name gives a salt, the structure may show the parent alone.
# Assays:
# Xanthomonas oryzae = experiment: microbe, parasite or virus in culture; assay type: cell-based; settings: pH 7
# Piricularia oryzae = experiment: microbe, parasite or virus in culture; assay type: cell-based; settings: pH 6.8
# [1] = solubility in various solvent; assay type: physicochemical
# edema and ulcer = experiment: activity on edema and ulcer in rats; assay type: in vivo
# Experimental: The present antibiotic substance is a basic nitrogen-containing compound, viz. a so-called alkaloid-like substance. […] The minimum effective concentration is established to be 1.0 mg/kg.
# [2] = acute toxicity in mice (Behrens-Karber method); settings: mouse, in vivo, ip.
# Cryptococcus neoformans = experiment: antifungal activity, MIC by agar dilution method; assay type: cell-based; settings: medium P, pH 6.8
# Text: (§1) Table 1 indicates the antibacterial and antifungal activity of AM-2282 in terms of the minimum inhibitory concentration (mcg/ml) determined by agar dilution method.
# (§2) P: Potato extract containing glucose 1.0 % W/V and agar 1.2 % W/V, pH 6.8
# Trichophyton rubrum = experiment: antifungal activity, MIC by agar dilution method; assay type: cell-based; settings: medium P, pH 6.8
# Text: as §1, §2
# Microsporum gipseum = experiment: antifungal activity, MIC by agar dilution method; assay type: cell-based; settings: medium P, pH 6.8
# Text: as §1, §2
# Candida albicans = experiment: antifungal activity, MIC by agar dilution method; assay type: cell-based; settings: medium P, pH 6.8
# Text: as §1, §2
# Candida pseudotropicalis = experiment: antifungal activity, MIC by agar dilution method; assay type: cell-based; settings: Kluyveromyces marxianus, medium P, pH 6.8
# Text: as §1, §2
# [3] = tested on: Trichophyton mentagrophytes; experiment: antifungal activity, MIC by agar dilution method; assay type: cell-based; settings: medium P, pH 6.8
# Text: as §1, §2
# Aspergillus brevipus = experiment: antifungal activity, MIC by agar dilution method; assay type: cell-based; settings: medium P, pH 6.8
# Text: as §1, §2
# Aspergillus niger = experiment: antifungal activity, MIC by agar dilution method; assay type: cell-based; settings: medium P, pH 6.8
# Text: as §1, §2
# Aspergillus fumigatus = experiment: antifungal activity, MIC by agar dilution method; assay type: cell-based; settings: medium P, pH 6.8
# Text: as §1, §2
# Saccharomyces sake = experiment: antifungal activity, MIC by agar dilution method; assay type: cell-based; settings: medium P, pH 6.8
# Text: as §1, §2
# Sclerotinia cinerea = experiment: antifungal activity, MIC by agar dilution method; assay type: cell-based; settings: medium P, pH 6.8
# Text: as §1, §2
# [4] = tested on: Pseudomonas aeruginosa P-3; experiment: antibacterial activity, MIC by agar dilution method; assay type: cell-based; settings: P3, medium N, pH 7.0
# Text: as §1
# (§3) *N: Peptone 0.5 % W/V, meat extract 0.5 % W/V, agar 1.2 % W/V, pH 7.0.
# [5] = tested on: Staphylococcus aureus FDA 209P; experiment: as above; assay type: cell-based; settings: FDA209P, medium N, pH 7.0
# Text: as §1, §3
# Escherichia coli NIJH = experiment: as above; assay type: cell-based; settings: medium N, pH 7.0
# Text: as §1, §3
# [6] = tested on: Bacillus substilis PCI 219; experiment: as above; assay type: cell-based; settings: PCI219, medium N, pH 7.0
# Text: as §1, §3
# [7] = tested on: Mycobacterium Smegmatis ATCC 607; experiment: as above; assay type: cell-based; settings: Mycolicibacterium smegmatis, ATCC607, medium N, pH 7.0
# Text: as §1, §3
# Sarcina lutea PCI 1001 = experiment: as above; assay type: cell-based; settings: Micrococcus luteus, PCI1001, medium N, pH 7.0
# Text: as §1, §3
# [8] = tested on: Proteus vulgaris IFO 3167; experiment: as above; assay type: cell-based; settings: IFO3167, medium N, pH 7.0
# Text: as §1, §3
# [9] = tested on: arteriolar pressure (systolic) in the tail; experiment: test for hypertensive effect in rats disposed to spontaneous hypertension
compound,measurement,setting,value
CN[C@@H]1CC2O[C@@](C)([C@@H]1OC)n1c3ccccc3c3c4c(c5c6ccccc6n2c5c31)C(=O)NC4 [AM-2282],MIC,Xanthomonas oryzae,200 µg/mL
same,MIC,Piricularia oryzae,0.78 µg/mL
same,Solubility,[1]; in chloroform,Sparingly soluble
same,Solubility,[1]; in dimethyl formamide,Soluble
same,Solubility,[1]; in dimethyl sulfoxide,Soluble
same,Solubility,[1]; in ethyl acetate,Sparingly soluble
same,Solubility,[1]; in fat,soluble in fat
same,Solubility,[1]; in methanol,Sparingly soluble
same,Solubility,[1]; in n-butyl acetate,Sparingly soluble
same,Solubility,[1]; in n-hexane,Insoluble
same,Solubility,[1]; in petroleum ether,Insoluble
same,Solubility,[1]; in water,Insoluble
same,minimal effective dose,"edema and ulcer; Rattus norvegicus, read-out: minimum effective concentration (activity on edema and ulcer)",1 mg/kg
same,activity on edema and ulcer,edema and ulcer; rats,exhibit an activity on edema and ulcer
same,LD50,[2],6.6 mg/kg
same,MIC,Cryptococcus neoformans,50 µg/mL
same,MIC,Trichophyton rubrum,6.25 µg/mL
same,MIC,Microsporum gipseum,> 100 µg/mL
same,MIC,Candida albicans,6.25 µg/mL
same,MIC,Candida pseudotropicalis,3.12 µg/mL
same,MIC,[3],25 µg/mL
same,MIC,Aspergillus brevipus,3.12 µg/mL
same,MIC,Aspergillus niger,25 µg/mL
same,MIC,Aspergillus fumigatus,12.5 µg/mL
same,MIC,Saccharomyces sake,3.12 µg/mL
same,MIC,Sclerotinia cinerea,0.78 µg/mL
same,MIC,[4],> 200 µg/mL
same,MIC,[5],> 200 µg/mL
same,MIC,Escherichia coli NIJH,> 200 µg/mL
same,MIC,[6],> 200 µg/mL
same,MIC,[7],50 µg/mL
same,MIC,Sarcina lutea PCI 1001,25 µg/mL
same,MIC,[8],> 200 µg/mL
CN[C@@H]1CC2O[C@@](C)([C@@H]1OC)n1c3ccccc3c3c4c(c5c6ccccc6n2c5c31)C(=O)NC4 [Hydrochloride of AM-2282],Degree of hypertension (%),"[9]; 0.16 mg/kg, oral, after 1 hr",-2% and 2%
same,Degree of hypertension (%),"[9]; 0.16 mg/kg, oral, after 3 hrs",1% and 2%
same,Degree of hypertension (%),"[9]; 0.16 mg/kg, oral, after 5 hrs",1% and 2%
same,Degree of hypertension (%),"[9]; 0.3 mg/kg, oral, after 3 hrs",23% and 13%
same,Degree of hypertension (%),"[9]; 0.3 mg/kg, oral, after 5 hrs",11% and 12%
same,Degree of hypertension (%),"[9]; 0.63 mg/kg, oral, after 1 hr",13% and 17%
same,Degree of hypertension (%),"[9]; 0.63 mg/kg, oral, after 3 hrs",13% and 24%
same,Degree of hypertension (%),"[9]; 0.63 mg/kg, oral, after 5 hrs",25% and 24%
same,Degree of hypertension (%),"[9]; 1.25 mg/kg, oral, after 1 hr",15% and 18%
same,Degree of hypertension (%),"[9]; 1.25 mg/kg, oral, after 3 hrs",23% and 25%
same,Degree of hypertension (%),"[9]; 1.25 mg/kg, oral, after 5 hrs",31% and 39%
same,minimal effective dose,"[9]; Rattus norvegicus, po, read-out: minimum dose rate at which the hypertensive effect appears",0.3 mg/kg
"CC(N)(Cc1ccc(O)c(O)c1)C(=O)O (stereo not drawn) [α-methyl DOPA, reference compound]",Degree of hypertension (%),"[9]; 100 mg/kg, after 1 hr",7%
same,Degree of hypertension (%),"[9]; 100 mg/kg, after 3 hrs",13%
same,Degree of hypertension (%),"[9]; 100 mg/kg, after 5 hrs",13%
